Data reported in paper PMC8868508, “Kassporin-KS1: A Novel Pentadecapeptide from the Skin Secretion of Kassina senegalensis: Studies on the Structure-Activity Relationships of Site-Specific “Glycine-Lysine” Motif Insertions” (Antibiotics, 2022).
In brackets after ≈: the same amount, converted by molar mass. Read-outs that look alike come from different tables or passages of the source. Where a SMILES comes first, the peptide text is derived from it.

How the values were obtained:
MRSA NCTC 12493 = type: cell-based, Methicillin-resistant Staphylococcus aureus
K. pneumoniae ATCC 43816 = type: cell-based, Klebsiella pneumoniae
Method: (§1) The inhibition of representative microorganisms by peptides was evaluated by the modified broth dilution technique. The microorganisms included Candida albicans (C. albicans, NCTC 10231), Enterococcus faecalis (E. faecalis, NCTC 12697), Staphylococcus aureus (S. aureus, NCTC 10788), Klebsiella pneumoniae (K. pneumoniae, ATCC 43816), Methicillin-resistant Staphylococcus aureus (MRSA, ATCC 12493), Pseudomonas aeruginosa (P. aeruginosa, ATCC 27853), and Escherichia coli (E. coli, NCTC 10418).
(§2) Firstly, the selected microorganism was incubated in conical flasks with 100 mL Mueller Hinton broth (MHB) overnight. Then, the bacterial solution was sub-cultured in 20 mL MHB until it reached the logarithmic growth phase. Meanwhile, the peptide solution was prepared. The peptide was dissolved into 128 × 10^2 μM solution with phosphate-buffered saline (PBS) and then double-diluted into 64, 32, 16, 8, 4, 2, and 1 × 10^2 μM. Each sample solution and positive control ([…] Norfloxacin) was added to 96-well plates and divided into five replicates, 1 μL per well. The blank control was 100 µL MHB, and the growth control was 100 µL bacterial solutions. When the optical density (OD) value corresponding to the microbial concentration reached the value (Gram-positive bacteria: 0.23; Gram-negative bacteria: 0.4; fungi: 0.15) in their logarithmic growth phase, the microorganisms were diluted to the required concentration with MHB (Gram-negative and Gram-positive bacteria: 5 × 10^5 CFU/mL; fungi: 1 × 10^6 CFU/mL).
(§3) The diluted bacterial solution was then added to the 96-well plate at 99 µL per well. The plate was incubated at 37 °C and observed the next day. The MIC was the corresponding lowest peptide concentration without microbial growth. The absorbance of the 96-well plate at 550 nm was measured by Synergy HT Microplate Spectrophotometer (Biotech, Minneapolis, MN, USA), and the obtained values were quantitatively analyzed by Prism 7 software. Subsequently, the concentrations corresponding to the clear solution were removed from the 96-well plate in 10 µL and dropped onto the solidified MHA. The Petri dishes with MHA were cultured overnight, observed and the minimum peptide concentration without colonies was MBC.

C. albicans NCTC 10231 = type: cell-based, Candida albicans
Method: as §1, §2, §3

S. aureus NCTC 10788 [1] = type: cell-based, Staphylococcus aureus
Method: as §1, §2, §3

P. aeruginosa ATCC 27853 = type: cell-based, Pseudomonas aeruginosa
Method: as §1, §2, §3

[2] = system: E. coli NCTC 10418 biofilm; type: cell-based, Escherichia coli; conditions: NCTC 10418, 24 h
Method: (§4) As previously described, the MBIC and MBEC of the peptides against bacteria were determined. Staphylococcus aureus (S. aureus, NCTC 10788) and Escherichia coli (E. coli, NCTC 10418) was selected as representative strains. For the MBIC assay, the cultures were sub-cultured to their logarithmic growth phases. The diluted bacterial suspension was incubated with the peptide solution overnight in a 96-well plate. The resulting biofilm was washed with PBS solution, fixed with methanol, and dried. The biofilm was then stained with 0.1% (w/v) crystal violet, washed again with PBS, and dissolved in 30% acetic acid. The absorbance of the solution in each well at 595 nm was counted by the Synergy HT Microplate Spectrophotometer (Biotech, Minneapolis, MN, USA). Compared with the negative control, the lowest concentration that inhibits biofilm formation was MBIC. For the determination of MBEC, the diluted bacterial solution was incubated in the 96-well plate for 24 h, with 100 µL per well. Then, the biofilm was washed and re-incubated with 100 µL peptide-medium solution. After 24 h, the biofilm was again washed, stained, and dissolved as in the MBIC assay. Each well was detected at 595 nm by the same plate reader in MBIC. Compared with the negative control, the lowest concentration to eliminate biofilm was MBEC.

E. coli NCTC 10418 = type: cell-based, Escherichia coli
Method: as §1, §2, §3

[3] = system: S. aureus NCTC 10788 biofilm; type: cell-based, Staphylococcus aureus; conditions: NCTC 10788, 24 h
Method: as §4

E. faecalis NCTC 12697 = type: cell-based, Enterococcus faecalis
Method: as §1, §2, §3

S. aureus NCTC 10788 [4] = type: cell-based, Staphylococcus aureus; remark: listed apart in the source
Method: As mentioned in the previous study, the salt and pH sensitivities of AMPs exposed to physiological concentrations of salts or non-neutral environments were tested. MHB containing different ion concentrations (150 mM NaCl, 1 mM MgCl2, and 4 μM FeCl3) and MHB with pH 6.0 and pH 8.0 were prepared. The selected microorganism Staphylococcus aureus (S. aureus, NCTC 10788) was incubated overnight in the prepared medium, sub-cultured to the logarithmic phase, and then diluted to 5 × 10^5 CFU/mL. The subsequent steps were carried out as the MIC/MBC assay.

Compound	MBC (MRSA NCTC 12493) [µM]	MIC (MRSA NCTC 12493) [µM]	MBC (K. pneumoniae ATCC 43816) [µM]	MIC (K. pneumoniae ATCC 43816) [µM]	MBC (C. albicans NCTC 10231) [µM]	MIC (C. albicans NCTC 10231) [µM]	MBC (S. aureus NCTC 10788 [1]) [µM]	MIC (S. aureus NCTC 10788 [1]) [µM]	MBC (P. aeruginosa ATCC 27853) [µM]	MIC (P. aeruginosa ATCC 27853) [µM]	MBEC [2]	MBIC [2]	MBC (E. coli NCTC 10418) [µM]	MIC (E. coli NCTC 10418) [µM]	MBEC [3]	MBC (E. faecalis NCTC 12697) [µM]	MIC (E. faecalis NCTC 12697) [µM]	MBIC [3]	MBC (S. aureus NCTC 10788 [4]) [µM]	MIC (S. aureus NCTC 10788 [4]) [µM]
CC[C@H](C)[C@H](NC(=O)[C@H](C)NC(=O)CNC(=O)CNC(=O)[C@@H](NC(=O)[C@H](CC(C)C)NC(=O)[C@H](C)NC(=O)[C@H](CC(C)C)NC(=O)[C@H](C)NC(=O)[C@H](CC(C)C)NC(=O)[C@@H](N)Cc1ccccc1)[C@@H](C)CC)C(=O)N[C@@H](C)C(=O)N[C@@H](CCCCN)C(=O)N[C@@H](CC(C)C)C(=O)N[C@@H](CCCCN)C(N)=O [QUB-1498] (H-FLALALIGGAIAKLK-NH2)	> 128	128 (≈ 192 µg/mL)	> 128	> 128	> 128	32	16	16	> 128	> 128	>128/>128 µM	>128/>128 µM	> 128	32	128 µM	64	32			
CC[C@H](C)[C@H](NC(=O)[C@H](C)NC(=O)[C@H](CCCCN)NC(=O)CNC(=O)[C@@H](NC(=O)[C@H](CC(C)C)NC(=O)[C@H](C)NC(=O)[C@H](CC(C)C)NC(=O)[C@H](C)NC(=O)[C@H](CC(C)C)NC(=O)[C@@H](N)Cc1ccccc1)[C@@H](C)CC)C(=O)N[C@@H](C)C(=O)N[C@@H](CCCCN)C(=O)N[C@@H](CC(C)C)C(=O)N[C@@H](CCCCN)C(N)=O [QUB-1570] (H-FLALALIGKAIAKLK-NH2)	8 (≈ 12.6 µg/mL)	4 (≈ 6.28 µg/mL)	32	32	8	8	8	2	> 128	> 128	64 µM	32 µM	32	16		8	8	4 µM		
CC[C@H](C)[C@H](NC(=O)[C@H](C)NC(=O)[C@H](CCC(=O)O)NC(=O)[C@H](CCCCN)NC(=O)CNC(=O)[C@H](CC(C)C)NC(=O)[C@H](C)NC(=O)[C@H](CC(C)C)NC(=O)[C@H](C)NC(=O)[C@H](CC(C)C)NC(=O)[C@@H](N)Cc1ccccc1)C(=O)N[C@@H](C)C(=O)N[C@@H](CCCCN)C(=O)N[C@@H](CC(C)C)C(=O)N[C@@H](CCCCN)C(N)=O [QUB-1585] (H-FLALALGKEAIAKLK-NH2)	128 (≈ 203 µg/mL)	64 (≈ 101 µg/mL)	> 128	> 128	128	64	64	32	> 128	> 128	128/128 µM	128/128 µM	128	64	128 µM	> 128	128	64 µM	> 128	
CC[C@H](C)[C@H](NC(=O)[C@H](C)NC(=O)[C@H](CCC(=O)O)NC(=O)[C@H](CCC(N)=O)NC(=O)[C@H](CCCCN)NC(=O)CNC(=O)[C@H](C)NC(=O)[C@H](CC(C)C)NC(=O)[C@H](C)NC(=O)[C@H](CC(C)C)NC(=O)[C@@H](N)Cc1ccccc1)C(=O)N[C@@H](C)C(=O)N[C@@H](CCCCN)C(=O)N[C@@H](CC(C)C)C(=O)N[C@@H](CCCCN)C(N)=O [QUB-1599] (H-FLALAGKQEAIAKLK-NH2)	> 128	> 128	> 128	> 128	> 128	> 128	> 128	> 128	> 128	> 128	>128/>128 µM	>128/>128 µM	> 128	> 128	>128/>128 µM	> 128	> 128	>128/>128 µM	> 128	> 128
CC[C@H](C)[C@H](NC(=O)[C@H](C)NC(=O)[C@H](CCCCN)NC(=O)[C@@H]1CCCN1C(=O)[C@@H](NC(=O)[C@H](CC(C)C)NC(=O)[C@H](C)NC(=O)[C@H](CC(C)C)NC(=O)[C@H](C)NC(=O)[C@H](CC(C)C)NC(=O)[C@@H](N)Cc1ccccc1)[C@@H](C)CC)C(=O)N[C@@H](C)C(=O)N[C@@H](CCCCN)C(=O)N[C@@H](CC(C)C)C(=O)N[C@@H](CCCCN)C(N)=O [QUB-1609] (H-FLALALIPKAIAKLK-NH2)	16 (≈ 25.7 µg/mL)	8 (≈ 12.9 µg/mL)	> 128	128	32	16	32	8	> 128	> 128	128 µM	64 µM	64	8	128 µM	64	16	16 µM		
CC[C@H](C)[C@H](NC(=O)[C@H](C)NC(=O)[C@H](CCC(=O)O)NC(=O)[C@H](CCC(N)=O)NC(=O)[C@@H](NC(=O)[C@H](CC(C)C)NC(=O)[C@H](CCCCN)NC(=O)CNC(=O)[C@H](C)NC(=O)[C@H](CC(C)C)NC(=O)[C@@H](N)Cc1ccccc1)[C@@H](C)CC)C(=O)N[C@@H](C)C(=O)N[C@@H](CCCCN)C(=O)N[C@@H](CC(C)C)C(=O)N[C@@H](CCCCN)C(N)=O [QUB-1643] (H-FLAGKLIQEAIAKLK-NH2)	128 (≈ 210 µg/mL)	64 (≈ 105 µg/mL)	> 128	> 128	128	64	64	32	> 128	> 128	>128/>128 µM	>128/>128 µM	> 128	128	128/>128 µM	> 128	128	128/>128 µM		
